{
  "source": "patent US20250041272A1",
  "about": "“COMPOSITIONS AND METHODS FOR TREATING CANCER VIA PTP1B INHIBITION” (priority 2021, published 2025)",
  "key": {"[1]": {"test_system": "macrophage pro-inflammatory gene expression", "experiment": "DAMP characterization assay: nutrient deprived tumor cell conditioned medium on macrophages", "format": "cell-based, mouse", "details": "BVT948 5 μM, 24 hours", "description": "DAMP characterization assay. B16F10 or GEMM6 cells were resuspended in DMEM deficient media with 1% penicillin-streptomycin (Gibco) and incubated for 3 days. Conditioned media was collected, filtered with a 0.2 μm filter and incubated with 0.35 U/ml proteinase K-agarose beads (Sigma Millipore) or 40 U/ml of benzonase endonuclease (Sigma Millipore) for 4 hours at 37° C. under rotation. Conditioned media was two-fold diluted with DMEM/F12 with 10% FBS, 1% penicillin-streptomycin (Gibco) and 20 ng/ml of M-CSF (Prospec), supplemented with 5 μM BVT948 (Sigma Millipore) and added to primary mural macrophages for 24 hours.\nqRT-PCR. RNA was isolated using the RNeasy Plus Mini Kit (Quiagen) and cDNA was prepared using the Reverse Transcription System (Promega) with one-hour reverse transcription process. qRT-PCR was done using the PowerUp™ SYBR™ Green Master Mix (Applied Biosystems) on a QuantStudio Pro Real-time PCR system (Applied Biosystems) with a 95° C. pretreatment of 10 min, 50 cycles of 95° C., 10 sec and 60° C., 1 min and melt curve at the end. Analysis was performed with the 2^−ΔΔCT method(136)."}, "B16F10 tumors": {"test_system": "B16F10 tumors", "experiment": "Subcutaneous B16F10 melanoma tumor model", "format": "in vivo, mouse", "description": "(§1) Tumor implantation, treatment and harvest. For animal studies, 1*10^5 B16F10 luciferase-tagged melanoma cells, 1*10^6 GEMM6 melanoma cells or 2*10^6 LCC cells were implanted subcutaneously into C57BL/6J mice (randomized, both males and females, 000664 The Jackson laboratory). When indicated, mice received intraperitoneal injections 7 days after implantation with 100 μl of 5 mg/kg cisplatin (Tocris), 100 μl of 10 mg/kg BVT948 (Tocris) or 100 μl of 30 mg/kg of vemurafenib. 5 mice were used per experimental group and tumors were harvested when they reached 1.5 cm in any direction.\n(§2) Immunohistochemistry analysis. Immunohistochemistry assay was carried out in formalin-fixed, paraffin-embedded 4 μm sections using primary antibodies against F4:80 (AbD Serotec), CD11b (Abcam), CD4 (eBioscience) or CD8a (eBioscience) on a Discovery Ultra Automated IHC staining system (Ventana). Sections were then imaged using a ScanScope XT microscope (Aperio) and quantified using Aperio software."}, "LLC tumors": {"test_system": "LLC tumors", "experiment": "Subcutaneous LLC tumor model", "format": "in vivo, mouse", "description": "as §1, §2"}, "[2]": {"details": "BVT948 10 mg/kg or Cisplatin 5 mg/kg intraperitoneal, treatment from 50 mm^3"}, "[3]": {"details": "BVT948 in combination with Cisplatin"}},
  "data": [
    {"substance": "BVT948", "values": [
      {"measurement": "DAMP mediated macrophage activation (pro-inflammatory gene expression)", "setting": "[1]; B16F10 nutrient deprivation conditioned medium", "value": "able to restore DAMP mediated macrophage activation"},
      {"measurement": "pro-inflammatory gene expression", "setting": "[1]; GEMM6 nutrient deprivation conditioned medium", "value": "rescued pro-inflammatory gene expression"},
      {"measurement": "B16F10 tumor growth, monotherapy vs vehicle", "setting": "B16F10 tumors; [2]", "value": "did not significantly reduce"},
      {"measurement": "decrease in B16F10 tumor growth, combination", "setting": "B16F10 tumors; [3]", "value": "roughly 50%"},
      {"measurement": "reduction in tumor viability (H&E staining)", "setting": "B16F10 tumors; BVT948 monotherapy, B16F10 tumors", "value": 20, "unit": "%"},
      {"measurement": "intra-tumoral immune infiltrate", "setting": "B16F10 tumors; BVT948 monotherapy, end-stage B16F10", "value": "some increases in macrophage and T cells"},
      {"measurement": "LLC tumor growth reduction, monotherapy", "setting": "LLC tumors; [2]", "value": 30, "unit": "%"},
      {"measurement": "decrease in LLC tumor growth, combination", "setting": "LLC tumors; [3]", "value": "roughly 50%"},
      {"measurement": "tumor viability (H&E staining)", "setting": "LLC tumors; BVT948 monotherapy, LLC tumors", "value": "not significantly changed"}
    ]}
  ]
}
